Assay results from paper PMC4063695, “Design of Embedded-Hybrid Antimicrobial Peptides with Enhanced Cell Selectivity and Anti-Biofilm Activity” (PLoS ONE, 2014).

Test system: resistant variants of P. aeruginosa
Test: microbe, parasite or virus in culture
Assay type: cell-based
Details: Pseudomonas aeruginosa, ATCC15442
Description: E. coli ATCC25922, P. aeruginosa ATCC27853, S. aureus ATCC29213, S. epidermidis ATCC12228, S. faecalis ATCC29212 and B. subtilis CMCC63501 were obtained from the College of Veterinary Medicine, Northeast Agricultural University (Harbin, China), E. coli K88, E. coli CVCC1515 and P. aeruginosa ATCC15442 were bestowed by Prof. J.H. Wang (Gene Engineering Laboratory, Feed Research Institute, Chinese Academy of Agricultural Sciences Beijing, China) and E. coli UB1005 was kindly provided by Prof. Q.S. Qi (State Key Laboratory of Microbial Technology, Shandong University, China). […] Briefly, 50 µl of approximate 0.5–1 × 10^6 colony forming units (CFU)/ml of cells were diluted in Mueller-Hinton broth and distributed to 96-well plate, 50 µl of twofold peptides were added and the plates was incubated at 37°C for 18–24 h. The MIC values were calculated as the lowest peptide concentration that prevented visible turbidity and negative control of the pure broth without microbes. The tests were performed at least three times in duplicate.

## CNC(C)C1CCC(N)C(OC2C(N)CC(N)C(OC3OCC(C)(O)C(NC)C3O)C2O)O1 (stereo not shown) [gentamicin]
  MIC: > 256 µM
